# Columns and labels:
# [1] = Oxygen radical absorbance capacity (ORAC), free radical scavenger capacity; conditions: fluorescein/AAPH, pH 7.4, trolox = 1
# Procedure: In order to study the potential antioxidant effect of the compounds of the invention, we performed an oxygen radical absorbance capacity (ORAC) experiment.
# For studying the free radical scavenger capacity, we measured the degree peroxide radical inhibition. Thus, scavenger capacity is measured as trolox equivalents and includes the disappearance of free radicals over time and the decrease of oxidative damage at the end of the experiment. The protocol used is based in the protocol developed by Ou and col. (Ou y col., 2001, J Agric Food Chem, 49: 4619-26) partially modified by Dávalos and col. (Davalos y col., 2004, J Agric Food Chem, 52: 48-54). The reaction was performed in phosphate tampon 75 mM (pH 7.4), with a final volume of 200 μL. 150 μL of fluorescein (final concentration of 70 nM) with 25 μL the compound of study at the desired concentration in triplicates, using surface transparent 96 well black plates for measuring fluorescence.
# The mixture was pre-incubated during 15 min at 37° C. and, afterwards, 25 μL of a solution containing 2,2′-Azobis(2-amidinopropane) dihydrochloride (AAPH) (final concentration; 12 mM) were rapidly added. Fluorescence was immediately measured using a plate reader fluostar optima, using the filters of emission and excitation of […], respectively. Fluorescence intensity was measured during 90 min. Each compound was measured at 6 different concentrations. In the assay, fluorescein+AAPH in phosphate tampon was added as a blank and a calibration curve was performed using Trolox (1-8 μM). Every variable was prepared in duplicates and at least three independent experiments were performed for each compound. The curves of the compounds (F.I.—time) were normalized respect to the curve of the blank for each experiment and area under the curve (AUC) of the decreasing in fluorescence was calculated. AUC value of each compound was calculated subtracting the AUC of the blank. Regression curves between AUC and concentration of the compound were calculated for each of the samples. ORAC values were expressed as trolox equivalents with respect to the calibration curve of each assay, where the trolox value was considered 1.
# HepG2 cells = experiment: Hepatotoxicity in HepG2 cell line, reduction of cell viability (MTT); type: cell-based
# Procedure: In order to assess cellular viability, we measured the metabolic reduction of 3-(4,5-Dimethylthiazol-2-yl)-2,5 diphenyltetrazolium bromide (MTT). MTT is an indirect assay to measure cellular viability. It is a colorimetric method based on the reduction of 3-(4,5-Dimethylthiazol-2-yl)-2,5 diphenyltetrazolium. This process is performed by the mitochondrial enzyme succinate-dehydrogenase present in metabolic active cells. Thus, the water-soluble yellow MTT (tetrazolium salt) is transformed into a insoluble purple compound (formazan). Quantity of living cells is directly proportional to the quantity of formazan (Mosmann, 1983, J Immunol Methods, 65: 55-63). […] Therefore, with this assay we can measure cellular surviving and proliferation and also, we can determine the cytotoxicity of potential neuroprotective compounds. In order to assess cellular viability in SH-SY5Y cell line, we added 30 μl/well of MTT (5 mg/mL) and after 2 h, medium was carefully removed to avoid losing the formazan and was diluted in 300 μL of DMSO. Afterwards, samples were transferred to a 96 well-plate and the absorbance was measured at 570 nm using a absorbance/fluorescence reader FluoStar optima®. Every MTT assay was performed in triplicates. Absorbance values obtained with the toxic alone were subtracted to the absorbance values obtained in basal conditions (without treatment). That result was considered as the 100% of cell death and the values obtained with the compounds in the presence of the toxic stimulus were normalized as percentages of that value. For determining the surviving percentage, those percentages of cell death were subtracted to 100.
# In general, compounds capable of inducing the transcription factor Nrf2 may have a hepatotoxic effect, due to the electrophilic character that generally characterizes them. The derivatives objects of this invention were designed to avoid this toxicity and to improve its safety profile. The liver plays an essential role in the metabolism of endogenous and exogenous compounds. Hepatocytes capture these compounds and after metabolizing them, they are eliminated by different mechanisms. Metabolized compounds usually have less pharmacological activity and less toxicity than the corresponding active principles. However, in certain cases, the active principles or their metabolites may be toxic to the hepatocytes. Hepatic toxicity is one of the leading causes of drug withdrawal from preclinical studies. […] In addition, these cells have been defined by the European Medicines Agency (EMA) as a model of hepatoxicity by measuring the induction of apoptosis and/or cell survival. Therefore, the safety profile of the compounds object of the present invention was evaluated in the HepG2 hepatic cancer cell line. HepG2 cells were cultured in T75 flask using EMEM as culture medium supplemented with non-essential amino acids, 10% fetal bovine serum, 50 units/mL penicillin and 50 μg/mL streptomycin (reagents from GIBCO, Madrid, Spain). Cultures were maintained in an incubator with an O2/CO2 gas mixture (95/5%) at 37° C. with a humid atmosphere and two passes per week were made when they reached 90% of confluence. All experiments were performed on cells that were between passages 5 and 15. For the experiments, the cells were plated in 96-well plates at a density of 4×10 ^4 cells/well in 200 μl of culture medium. After 24 h in culture, the medium was removed and replaced with 100 μL of the corresponding solution of the compounds of the invention in culture medium at the selected concentrations (1, 10, 30 and 100 μM). The compounds were studied in triplicate, including in each experiment 3 wells without treatment, which was considered as 100% of viability (baseline conditions). After 24 h of incubation with the treatments, cell viability was assessed by the MTT reduction method. […]
# [2] = 24 h incubation, MTT, concentration reducing viability to 50% of basal
Structure (SMILES),ORAC (Trolox eq.) [1],HepG2 LD50 (HepG2 cells; [2]),"HepG2 LD50 (HepG2 cells; human, 24 h)"
"C/C=C/C(=O)Oc1ccc2[nH]cc(CCNC(C)=O)c2c1 [Compound 1, 3-(2-acetamidoethyl)-1H-indol-5-yl (E)-2-butenoate]",8.64 ± 1.98 Trolox eq.,>100 µM,–
"CC(=O)NCCc1c[nH]c2ccc(OC(=O)/C=C/c3ccccc3)cc12 [Compound 2, 3-(2-acetamidoethyl)-1H-indol-5-yl cinnamate]",4.30 ± 0.50 Trolox eq.,>100 µM,–
"CC(=O)NCCc1c[nH]c2ccc(OC(=O)/C=C/c3ccc(C)cc3)cc12 [Compound 3, 3-(2-acetamidoethyl)-1H-indol-5-yl (E)-3-(4-methylphenyl)acrylate]",4.44 ± 0.51 Trolox eq.,>100 µM,–
"COc1ccccc1/C=C/C(=O)Oc1ccc2[nH]cc(CCNC(C)=O)c2c1 [Compound 4, 3-(2-acetamidoethyl)-1H-indol-5-yl (E)-3-(2-methoxyphenyl)acrylate]",3.02 ± 0.20 Trolox eq.,>100 µM,–
"COc1cccc(/C=C/C(=O)Oc2ccc3[nH]cc(CCNC(C)=O)c3c2)c1 [Compound 5, 3-(2-acetamidoethyl)-1H-indol-5-yl (E)-3-(3-methoxyphenyl)acrylate]",3.52 ± 0.27 Trolox eq.,>100 µM,–
"COc1ccc(/C=C/C(=O)Oc2ccc3[nH]cc(CCNC(C)=O)c3c2)cc1 [Compound 6, 3-(2-acetamidoethyl)-1H-indol-5-yl (E)-3-(4-methoxyphenyl)acrylate]",3.51 ± 0.27 Trolox eq.,>100 µM,–
"CC(=O)NCCc1c[nH]c2ccc(OC(=O)/C=C/c3ccc(O)cc3)cc12 [Compound 7, 3-(2-acetamidoethyl)-1H-indol-5-yl (E)-3-(4-hydroxyphenyl)acrylate]",9.21 ± 0.81 Trolox eq.,>100 µM,–
"COc1cc(/C=C/C(=O)Oc2ccc3[nH]cc(CCNC(C)=O)c3c2)ccc1O [Compound 8, 3-(2-acetamidoethyl)-1H-indol-5-yl (E)-3-(4-hydroxy-3-methoxyphenyl)acrylate]",8.04 ± 0.66 Trolox eq.,>100 µM,–
"CC(=O)NCCc1c[nH]c2ccc(OC(=O)/C=C/c3ccc(F)cc3)cc12 [Compound 9, 3-(2-acetamidoethyl)-1H-indol-5-yl (E)-3-(4-fluorophenyl)acrylate]",3.44 ± 0.67 Trolox eq.,>100 µM,–
"CC(=O)NCCc1c[nH]c2ccc(OC(=O)/C=C/c3ccc(Br)cc3)cc12 [Compound 10, 3-(2-acetamidoethyl)-1H-indol-5-yl (E)-3-(4-bromophenyl)acrylate]",2.53 ± 0.18 Trolox eq.,>100 µM,–
"CC(=O)NCCc1c[nH]c2ccc(OC(=O)/C=C/c3ccc(Cl)cc3)cc12 [Compound 11, 3-(2-acetamidoethyl)-1H-indol-5-yl (E)-3-(4-chlorophenyl)acrylate]",2.91 ± 0.32 Trolox eq.,>100 µM,–
"CC(=O)NCCc1c[nH]c2ccc(OC(=O)/C=C/c3ccc(Cl)c(Cl)c3)cc12 [Compound 12, 3-(2-acetamidoethyl)-1H-indol-5-yl (E)-3-(3,4-dichlorophenyl)acrylate]",5.37 ± 0.38 Trolox eq.,>100 µM,–
"CC(=O)NCCc1c[nH]c2ccc(OC(=O)/C=C/c3ccccc3C(F)(F)F)cc12 [Compound 13, 3-(2-acetamidoethyl)-1H-indol-5-yl (E)-3-(2-(trifluoromethyl)phenyl)acrylate]",3.33 ± 0.28 Trolox eq.,>100 µM,–
"CC(=O)NCCc1c[nH]c2ccc(OC(=O)/C=C/c3cccc(C(F)(F)F)c3)cc12 [Compound 14, 3-(2-acetamidoethyl)-1H-indol-5-yl (E)-3-(3-(trifluoromethyl)phenyl)acrylate]",4.13 ± 0.39 Trolox eq.,>100 µM,–
"CC(=O)NCCc1c[nH]c2ccc(OC(=O)/C=C/c3ccc(C(F)(F)F)cc3)cc12 [Compound 15, 3-(2-acetamidoethyl)-1H-indol-5-yl (E)-3-(4-(trifluoromethyl)phenyl)acrylate]",3.97 ± 0.38 Trolox eq.,>100 µM,–
"CC(=O)NCCc1c[nH]c2ccc(OC(=O)/C=C/c3ccc([N+](=O)[O-])cc3)cc12 [Compound 16, 3-(2-acetamidoethyl)-1H-indol-5-yl (E)-3-(4-nitrophenyl)acrylate]",4.12 ± 0.49 Trolox eq.,>100 µM,–
"COc1ccc2[nH]cc(CCNC(C)=O)c2c1 [Melatonin, reference compound]",–,–,>100 µM

# Reference: patent US20180105492A1, “COMPOUNDS DERIVED FROM 3-ALKYLAMINE-1H-INDOLYL ACRYLATE AND THEIR USE IN THE TREATMENT OF NEURODEGENERATIVE DISEASES” (FUNDACION PARA LA INVESTIGACION BIOMEDICA DEL HOSPITAL …, priority 2014, published 2018)
